Data as given in patent publication US7307044B2, “3-biphenyl-substituted-3-substituted-4-ketolactam and ketolactone and their utilization as pesticide” (Bayer CropScience AG, priority 2001, dated 2007).

Legend:
Assay type in all cases: in vivo
Alopecurus [1] = assay: Post-emergence test (greenhouse); settings: after three weeks
Description: (§1) Solvent: 5 parts by weight of acetone
(§2) Emulsifier: 1 part by weight of alkylaryl polyglycol ether
(§3) To produce a suitable preparation of active compound, 1 part by weight of active compound is mixed with the stated amount of solvent, the stated amount of emulsifier is added and the concentrate is diluted with water to the desired concentration.
(§4) Test plants of a height of 5-15 cm are sprayed with the preparation of active compound such that the particular amounts of active compound desired are applied per unit area. The concentration of the spray liquor is chosen such that the particular amounts of active compound desired are applied in 1000 l of water/ha.
(§5) After three weeks, the degree of damage to the plants is rated in % damage in comparison to the development of the untreated control.
(§6) The figures denote: • 0%=no effect (like untreated control) • 100%=total destruction

Echinochloa [2] = assay: Post-emergence test (greenhouse); settings: after three weeks
Description: as §1, §2, §3, §4, §5, §6

Sinapis = assay: Post-emergence test (greenhouse); settings: 250 g ai/ha, after three weeks
Description: as §1, §2, §3, §4, §5, §6

Setaria [3] = assay: Post-emergence test (greenhouse); settings: after three weeks
Description: as §1, §2, §3, §4, §5, §6

Avena fatua [4] = assay: Post-emergence test (greenhouse); settings: after three weeks
Description: as §1, §2, §3, §4, §5, §6

Amaranthus [5] = assay: Post-emergence test (greenhouse); settings: 250 g ai/ha, after three weeks
Description: as §1, §2, §3, §4, §5, §6

[6] = system: greenhouse red spider mite (Tetranychus urticae); assay: Tetranychus test (OP-resistent/dip treatment); settings: 100 ppm, bean plants dipped
Description: Tetranychus Test (OP-Resistent/Dip Treatment)
Solvent: 7 parts by weight of dimethylformamide
Emulsifier: 2 parts by weight of alkylaryl polyglycol ether
To produce a suitable preparation of active compound, 1 part by weight of active compound is mixed with the stated amounts of solvent and emulsifier, and the concentrate is diluted with emulsifier-containing water to the desired concentration.
Bean plants (Phaseolus vulgaris) which are heavily infested by all stages of the greenhouse red spider mite (Tetranychus urticae) are dipped into a preparation of active compound of the desired concentration.
After the desired period of time, the effect in % is determined. 100% means that all spider mites have been killed; 0% means that none of the spider mites have been killed.

Sugar beet = assay: Post-emergence test (greenhouse); settings: 125 g ai/ha, after three weeks
Description: as §1, §2, §3, §4, §5, §6

Digitaria = assay: Post-emergence test (greenhouse); settings: 125 g ai/ha, after three weeks
Description: as §1, §2, §3, §4, §5, §6

[7] = system: larvae of the mustard beetle (Phaedon cochleariae); assay: Phaedon larvae test; settings: 500 ppm, cabbage leaves dipped
Description: (§7) Phaedon Larvae Test Solvent: 7 parts by weight of dimethylformamide Emulsifier: 2 parts by weight of alkylaryl polyglycol ether To produce a suitable preparation of active compound, 1 part by weight of active compound is mixed with the stated amounts of solvent and emulsifier, and the concentrate is diluted with emulsifier-containing water to the desired concentration. Cabbage leaves (Brassica oleracea) are treated by being dipped into the preparation of active compound of the desired concentration and are populated with larvae of the mustard beetle (Phaedon cochleariae) while the leaves are still moist. After the desired period of time, the kill in % is determined. 100% means that all beetle larvae have been killed; 0% means that none of the beetle larvae have been killed.

Plasmopara viticola = assay: Plasmopara test (grapevine)/protective; settings: protective, evaluation 6 days after inoculation
Description: Plasmopara Test (Grapevine)/Protective Solvents: 24.5 parts by weight of acetone • 24.5 parts by weight of dimethylacetamide Emulsifier: 1.0 part by weight of alkylaryl polyglycol ether To produce a suitable preparation of active compound, 1 part by weight of active compound is mixed with the stated amounts of solvent and emulsifier, and the concentrate is diluted with water to the desired concentration. To test for protective activity, young plants are sprayed with the preparation of active compound at the stated application rate. After the spray coating has dried on, the plants are inoculated with an aqueous spore suspension of Plasmopara viticola and then remain in an incubation cabin at 20° C. and 100% relative atmospheric humidity for 1 day. The plants are then placed in a greenhouse at about 21° C. and about 90% atmospheric humidity for 4 days. The plants are then moistened and placed in an incubation cabin for 1 day.

[8] = system: caterpillars of the armyworm (Spodoptera frugiperda); assay: Spodoptera frugiperda test; settings: 500 ppm, cabbage leaves dipped
Description: as §7, with “Spodoptera frugiperda” for “Phaedon Larvae”, “caterpillars” for “larvae”, “armyworm (Spodoptera frugiperda)” for “mustard beetle (Phaedon cochleariae)”, “caterpillars” for “beetle larvae”

[9] = system: apple scab pathogen Venturia inaequalis; assay: Venturia test (apple)/protective; settings: protective, evaluation 10 days after inoculation
Description: Venturia Test (Apple)/Protective Solvents: 24.5 parts by weight of acetone • 24.5 parts by weight of dimethylacetamide Emulsifier: 1.0 part by weight of alkylaryl polyglycol ether To produce a suitable preparation of active compound, 1 part by weight of active compound is mixed with the stated amounts of solvent and emulsifier, and the concentrate is diluted with water to the desired concentration. To test for protective activity, young plants are sprayed with the preparation of active compound at the stated application rate. After the spray coating has dried on, the plants are inoculated with an aqueous conidia suspension of the apple scab pathogen Venturia inaequalis and then remain in an incubation cabin at about 20° C. and 100% relative atmospheric humidity for 1 day. The plants are then placed in a greenhouse at about 21° C. and a relative atmospheric humidity of about 90%.

[10] = system: green peach aphid (Myzus persicae); assay: Myzus test; settings: 500 ppm, cabbage leaves dipped
Description: as §7, with “Myzus” for “Phaedon Larvae”, “oleracea) which are heavily infested by the green peach aphid (Myzus persicae)” for “oleracea)”, “concentration.” for “concentration and are populated with larvae of the mustard beetle (Phaedon cochleariae) while the leaves are still moist.”, “aphids” for “beetle larvae”

Alopecurus [11] = assay: Pre-emergence test (greenhouse); settings: 250 g ai/ha, after three weeks
Description: (§8) Pre-Emergence Test Solvent: 5 parts by weight of acetone Emulsifier: 1 part by weight of alkylaryl polyglycol ether To produce a suitable preparation of active compound, 1 part by weight of active compound is mixed with the stated amount of solvent, the stated amount of emulsifier is added and the concentrate is diluted with water to the desired concentration. Seeds of the test plants are sewn in normal soil. After about 24 hours, the soil is sprayed with the preparation of active compound such that the particular amounts of active compound desired are applied per unit area. The concentration of the spray liquor is chosen such that the particular amounts of active compound desired are applied in 1000 l of water/ha. After three weeks, the degree of damage to the plants is rated in % damage in comparison to the development of the untreated control. The figures denote: • 0%=no effect (like untreated control) • 100%=total destruction

Echinochloa [12] = assay: Pre-emergence test (greenhouse); settings: 250 g ai/ha, after three weeks
Description: as §8

Setaria [13] = assay: Pre-emergence test (greenhouse); settings: 250 g ai/ha, after three weeks
Description: as §8

Avena fatua [14] = assay: Pre-emergence test (greenhouse); settings: 250 g ai/ha, after three weeks
Description: as §8

Amaranthus [15] = assay: Pre-emergence test (greenhouse); settings: 250 g ai/ha, after three weeks
Description: as §8

Row | SMILES | degree of damage to the plants in % damage (Alopecurus [1]; 250 g ai/ha) [%] | degree of damage to the plants in % damage (Echinochloa [2]; 250 g ai/ha) [%] | degree of damage to the plants in % damage (Sinapis) [%] | degree of damage to the plants in % damage (Setaria [3]; 250 g ai/ha) [%] | degree of damage to the plants in % damage (Avena fatua [4]; 250 g ai/ha) [%] | degree of damage to the plants in % damage (Amaranthus [5]) [%] | Kill rate in % after 7 d [6] [%] | degree of damage to the plants in % damage (Alopecurus [1]; 125 g ai/ha) [%] | degree of damage to the plants in % damage (Sugar beet) [%] | degree of damage to the plants in % damage (Digitaria) [%] | degree of damage to the plants in % damage (Echinochloa [2]; 125 g ai/ha) [%] | degree of damage to the plants in % damage (Setaria [3]; 125 g ai/ha) [%] | degree of damage to the plants in % damage (Avena fatua [4]; 125 g ai/ha) [%] | Kill rate in % after 7 d [7] [%] | Kill rate in % after 7 d [8] [%] | further results
1 | Cc1cc(-c2ccc(Cl)cc2)cc(Cl)c1C1(Cl)C(=O)NC2(CCCOC2)C1=O (stereo not shown) [Ex. I-1-8] | 95 | 100 | 80 | 100 | 95 | 70 | 98 |  |  |  |  |  |  |  |  | 
2 | CC1(C)NC(=O)C(Cl)(c2cc(-c3ccc(Cl)cc3)ccc2Cl)C1=O (stereo not shown) [Ex. I-1-2] |  |  |  |  |  |  | 100 | 90 | 0 | 100 | 100 | 90 | 95 | 100 | 100 | % efficacy (Plasmopara viticola; 100 g/ha): 100%; % efficacy ([9]; 100 g/ha): 96%
3 | Cc1ccc(-c2ccc(Cl)cc2)cc1C1(Cl)C(=O)NC(C)(C)C1=O (stereo not shown) [Ex. I-1-1] |  |  |  |  |  |  | 100 | 95 | 0 | 90 | 100 | 100 | 100 | 100 | 100 | Kill rate in % after 6 d [10]: 95%; Emax at 100 g/ha (Plasmopara viticola; Plasmopara viticola, 144 h, read-out: % efficacy): 100%; Emax at 100 g/ha ([9]; Venturia inaequalis, 240 h, read-out: % efficacy): 97%
4 | CCOC1CCC2(CC1)NC(=O)C(Cl)(c1c(C)cc(-c3ccc(Cl)cc3)cc1CC)C2=O (stereo not shown) [Ex. I-1-10] | 100 | 100 | 80 | 100 | 100 | 80 |  |  |  |  |  |  |  |  |  | 
5 | COC1CCC2(CC1)NC(=O)C(Cl)(c1c(C)cc(-c3cccc(Cl)c3)cc1C)C2=O (stereo not shown) [Ex. I-1-4] | 100 | 100 | 70 | 100 | 100 |  |  |  |  |  |  |  |  |  |  | degree of damage to the plants in % damage (Alopecurus [11]): 95%; degree of damage to the plants in % damage (Echinochloa [12]): 100%; degree of damage to the plants in % damage (Setaria [13]): 100%; degree of damage to the plants in % damage (Avena fatua [14]): 90%; degree of damage to the plants in % damage (Amaranthus [15]): 90%
